Substitutions are numbered along the chain they refer to.
Key:
ABCG5/G8 [1] = biological target: T1, ABCG5/G8 (Homo sapiens, UniProt Q9H221+Q9H222, Q9H222:A540F); assay: [3H]cholesterol binding, Ni-NTA bead pull-down, scintillation counting
T1 sequence (Q9H222 1-651 A540F): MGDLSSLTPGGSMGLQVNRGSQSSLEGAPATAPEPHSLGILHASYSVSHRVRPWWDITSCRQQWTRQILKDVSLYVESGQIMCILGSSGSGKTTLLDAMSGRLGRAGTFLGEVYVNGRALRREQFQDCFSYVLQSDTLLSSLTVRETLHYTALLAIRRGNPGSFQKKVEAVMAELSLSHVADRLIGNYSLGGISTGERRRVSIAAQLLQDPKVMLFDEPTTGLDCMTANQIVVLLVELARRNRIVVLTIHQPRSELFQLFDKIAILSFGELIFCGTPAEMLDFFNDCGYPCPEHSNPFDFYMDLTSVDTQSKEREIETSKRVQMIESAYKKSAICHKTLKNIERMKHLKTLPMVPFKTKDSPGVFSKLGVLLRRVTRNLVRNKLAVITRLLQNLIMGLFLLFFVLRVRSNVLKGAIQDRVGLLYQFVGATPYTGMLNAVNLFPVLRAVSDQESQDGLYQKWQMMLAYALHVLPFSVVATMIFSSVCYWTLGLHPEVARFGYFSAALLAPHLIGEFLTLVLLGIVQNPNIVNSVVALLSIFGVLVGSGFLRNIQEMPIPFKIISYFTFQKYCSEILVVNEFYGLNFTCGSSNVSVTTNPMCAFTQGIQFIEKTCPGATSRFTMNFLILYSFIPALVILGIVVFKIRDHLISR
T1 sequence (Q9H221 1-673): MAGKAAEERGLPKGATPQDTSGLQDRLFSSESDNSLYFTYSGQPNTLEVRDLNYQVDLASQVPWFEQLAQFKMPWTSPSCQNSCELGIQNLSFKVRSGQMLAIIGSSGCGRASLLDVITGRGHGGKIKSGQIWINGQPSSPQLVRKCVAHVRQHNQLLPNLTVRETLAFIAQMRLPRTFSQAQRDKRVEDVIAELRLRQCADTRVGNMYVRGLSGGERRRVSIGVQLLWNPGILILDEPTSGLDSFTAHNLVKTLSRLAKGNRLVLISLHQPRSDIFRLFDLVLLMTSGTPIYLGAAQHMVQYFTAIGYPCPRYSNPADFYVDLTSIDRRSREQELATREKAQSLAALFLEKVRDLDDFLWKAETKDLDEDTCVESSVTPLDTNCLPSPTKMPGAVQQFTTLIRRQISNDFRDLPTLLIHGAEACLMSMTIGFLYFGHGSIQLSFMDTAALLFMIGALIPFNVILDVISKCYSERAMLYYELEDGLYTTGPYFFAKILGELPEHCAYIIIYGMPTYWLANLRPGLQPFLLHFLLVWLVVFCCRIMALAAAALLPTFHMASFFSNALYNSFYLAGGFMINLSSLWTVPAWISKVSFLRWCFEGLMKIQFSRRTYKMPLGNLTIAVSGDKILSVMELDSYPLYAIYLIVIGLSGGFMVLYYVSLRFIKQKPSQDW

ABCG5/G8 [2] = biological target: T2, ABCG5/G8 (Homo sapiens, UniProt Q9H221+Q9H222); assay: as above
T2 sequence (Q9H222 1-651): T1 sequence (Q9H222 1-651 A540F) with F540A
T2 sequence (Q9H221 1-673): T1 sequence (Q9H221 1-673)

Kd (ABCG5/G8 [1]): 1550 ± 10 nM | Kd (ABCG5/G8 [2]): 1460 ± 280 nM
SMILES: CC(C)CCC[C@@H](C)[C@H]1CC[C@H]2[C@@H]3CC=C4C[C@@H](O)CC[C@]4(C)[C@H]3CC[C@]12C [cholesterol]

From article doi:10.1101/2022.05.18.492512v2 (biorxiv, 2022)
